Patent US20230372425A1, “TOPICAL COMPOSITIONS CONTAINING MANUKA OIL AND PALMAROSA OIL FOR TREATING SKIN CONDITIONS” (Manuka Therapeutics Ltd., priority 2021, published 2023)

Columns and labels:
MRSA = experiment: MIC50 / MIC and MBC testing; assay type: cell-based, methicillin-resistant Staphylococcus aureus; details: Table 35 (Example 25); 1% ECMO or 1% ECMT, 0.05% CBD pure isolate
From the text: (§1) The MIC50 test evaluates the lowest concentration of a test substance that prevents 50% of the growth of bacteria or fungi. This is a measure of the antibacterial or anti-fungal activity of the test sample. MBC is the lowest concentration of an antibacterial agent required to kill a bacterium. Similarly, Minimum fungicidal concentration (MFC) is the lowest concentration of an antifungal agent required to kill a fungus or a yeast.
(§2) The disclosed topical compositions may be tested for MIC50 and MBC using publicly available testing criteria. For example, test samples of the desired active compound can be prepared and serially diluted to give 11 or more different concentrations covering, for example, a 1000-fold range. For example, the test samples may include 50%-0.1% of a stock test sample (e.g., stock samples disclosed in Table 1) that are combined with select bacteria and fungi and incubated over a prescribed period of time. The MIC50 is useful to determine the lowest concentration of each test sample (mixture of active materials) that inhibits 50% of the growth of the microbe as determined by measurement of OD650 nm using a Versa Max 96 well plate reader. […]
(§3) Additional data Minimum Inhibitory Concentration (MIC) data on East Cape manuka oil and β-triketones provide further context. […] MIC data is measured at the first sign of bacterial growth inhibition. […]

[1] = tested on: gram positive bacteria S aureus, MRSA, S pyogenes, C. acnes; experiment: Average MIC over gram positive bacteria (Example 25); assay type: cell-based
From the text: Cannabidiol (CBD) content in CBD oil can be highly variable. For this reason, pure CBD isolate was used in these examples. 1% ECMT or 1% ECMO were used in these examples. Since CBD oil contains 5-10% CBD, a concentration of 0.05% CBD pure isolate (equating to 0.5% to 1% whole CBD oil) was used in these tests.
The average MIC of CBD alone is 0.2 times that of ECMO-314. The average MIC of CBD alone is 0.1 times that of ECMT-314. […] The average MIC of ECMT alone is 0.8 times that of ECMT-314.

S. aureus = experiment: MIC50 / MIC and MBC testing; assay type: cell-based, Staphylococcus aureus; details: Table 35 (Example 25); 1% ECMO or 1% ECMT, 0.05% CBD pure isolate
From the text: as §1, §2, §3

S. pyogenes = experiment: MIC50 / MIC and MBC testing; assay type: cell-based, Streptococcus pyogenes; details: Table 35 (Example 25); 1% ECMO or 1% ECMT, 0.05% CBD pure isolate
From the text: as §1, §2, §3

C. acnes = experiment: MIC50 / MIC and MBC testing; assay type: cell-based, Cutibacterium acnes
From the text: as §1
The disclosed topical compositions may be tested for MIC50 and MBC using publicly available testing criteria. For example, test samples of the desired active compound can be prepared and serially diluted to give 11 or more different concentrations covering, for example, a 1000-fold range. For example, the test samples may include 50%-0.1% of a stock test sample (e.g., stock samples disclosed in Table 1) that are combined with select bacteria and fungi and incubated over a prescribed period of time. The MIC50 is useful to determine the lowest concentration of each test sample (mixture of active materials) that inhibits 50% of the growth of the microbe as determined by measurement of OD650 nm using a Versa Max 96 well plate reader. Measurement of cell concentration can be made at several time points.
Additional data Minimum Inhibitory Concentration (MIC) data on East Cape manuka oil and β-triketones provide further context. (Source: Plant & Food). MIC data is measured at the first sign of bacterial growth inhibition. These figures can be expected to be lower than MIC50 data, though this is not always the case. Published MIC data on palmarosa oil is also included for further context, In Vitro Antimicrobial and Antioxidant Activities of Some Cymbopogon Species in Essential Oil-Bearing Grasses—The genus Cymbopogon, Khunkitti, W. (2010) Chapter 6, Edited by A. Akhila., Medicinal and Aromatic Plants—Industrial Profiles, CRC Press Taylor & Francis Group. Example stock sample solutions of active mixtures that show promising results and are suitable for MIC50 and MBC testing are listed in Table 7. […]

Compound: C=C(C)[C@@H]1CCC(C)=C[C@H]1c1c(O)cc(CCCCC)cc1O [0.05% CBD isolate, cannabidiol]
- MIC (MRSA): 0.0125 % v/v
- average MIC of ingredient alone, times that of ECMO-314 [1]: 0.2 times
- average MIC of ingredient alone, times that of ECMT-314 [1]: 0.1 times
- AVERAGE MIC ([1]; Table 35 (Example 25)): 0.018 % v/v
- MIC (S. aureus): 0.05 % v/v
- MIC (S. pyogenes): 0.002 % v/v
- MIC of ingredient alone, times that of ECMT-314 (C. acnes; C. acnes considered on its own): 0.95 times
- MIC50, expressed as CBD (C. acnes; Table 24, studies with manuka oil β-triketones and CBD): 0.006% CBD (v/v) %
- MIC (C. acnes; Table 35 (Example 25), 1% ECMO or 1% ECMT, 0.05% CBD pure isolate): 0.006 % v/v
